# Measured values published in US20080175902A1, “Methods for slowing the progression of multiple sclerosis” (University of Plymouth, priority 2006, published 2008).
# How the values were obtained:
# [1] = test system: patients with multiple sclerosis with problematic spasticity; assay: Ashworth score of spasticity, randomized placebo-controlled 15 week study; type: in vivo, human; conditions: baseline to 13 weeks follow-up
# [2] = test system: patients with multiple sclerosis; assay: Serious adverse events (hospital admissions), 52 week follow up; type: in vivo, human
# Source text: During this study, all hospital admissions were classed as serious adverse events.
# [3] = test system: patients with multiple sclerosis; assay: Category-rating scales of symptoms, 15 week study; type: in vivo, human; conditions: category rating vs before study start
# Protocol: Secondary outcomes were also measured in the above-described study. Such secondary outcomes included the Rivermead mobility index (See e.g. Collen, F. M. et al., The Rivermead mobility index: a further development of the Rivermead motor assessment. Int. Disanil. Stud. 1991; 13:50 54) hereby incorporated by reference in its entirety, a timed 10 meter walk, four self completion questionnaires—the United Kingdom neurological disability score (See e.g. Sharrack, B., Hughes R. A., The Guy's neurological disability scale (GNDS): a new disability measure for multiple sclerosis. Mult. Sder. 1999; 5: 223-33), and a series of nine category-rating scales. For the category-rating scale assessment, patients were asked to assess how their symptoms had been over the previous week compared with how they were just before the study started. Categories included irritability, depression, tiredness, muscle stiffness, tremor, pain, sleep, muscle spasms, and amount of energy.
# Category rating scales were used to assess whether patients felt their symptoms had improved while on treatment relative to before start of treatment. Overall, patients felt that symptoms of pain, sleep quality, spasms, and had improved while on active treatment.
# [4] = test system: patients with multiple sclerosis; assay: Adverse events reported by patients, 15 week study
# [5] = test system: multiple sclerosis patients; conditions: 15 week trial; cited from earlier work
# [6] = test system: patients with multiple sclerosis; assay: Patient assessment of treatment benefit at visit 8; type: in vivo, human; conditions: patient assessment at visit 8
# Source text: At visit 8 in the study described in Examples 1 and 2, patients were asked uestions about whether treatment had improved pain, tremor, spasticity, or ymptoms. […] Overall, more patients perceived an improvement in spasticity and pain when taking the active treatments than when taking placebo. Difference in perception of improvement in tremor was not statistically significant and no treatment effect on bladder symptoms was identified. Although there was no stratification for these specific symptoms between groups, the groups were broadly balanced for these symptoms apart from bladder symptoms, where there were fewer patients with urinary symptoms in the group taking, delta-9-THC.
compound,measurement,setting,value
"CCCCCc1cc(O)c2c(c1)OC(C)(C)[C@@H]1CCC(C)=C[C@@H]21 (relative stereo) [delta-9-THC, Delta-9-Tetrahydrocannabinol]","Mean (SD) change in Ashworth score, lower-body muscle groups",[1],1.39 (5.21)
same,"Mean (SD) change in Ashworth score, upper-body muscle groups",[1],0.48 (4.70)
same,Mean (SD) change in total Ashworth score (baseline minus follow-up),[1]; all muscle groups,1.86 (7.95)
same,serious adverse events reported (total number),"[2]; 52 week follow up, all hospital admissions",24
same,Serious adverse event: Insertion of baclofen pump (frequency),[2]; CM,0
same,Serious adverse event: Limb fracture (frequency),[2]; CM,0
same,Serious adverse event: Other (frequency),[2]; CM,8
same,Serious adverse event: Pneumonia/chest infection (frequency),[2]; CM,1
same,Serious adverse event: Relapse/possible relapse (frequency),[2]; CM,8
same,Serious adverse event: Seizure (frequency),[2]; CM,0
same,Serious adverse event: Urinary tract infection (frequency),[2]; CM,3
same,Serious adverse events: No. of events,[2]; CM,20
same,Serious adverse events: no. of patients,[2]; CM,18
same,Serious adverse event: Insertion of baclofen pump (frequency),[2]; DM,0
same,Serious adverse event: Limb fracture (frequency),[2]; DM,0
same,Serious adverse event: Other (frequency),[2]; DM,2
same,Serious adverse event: Pneumonia/chest infection (frequency),[2]; DM,0
same,Serious adverse event: Relapse/possible relapse (frequency),[2]; DM,2
same,Serious adverse event: Seizure (frequency),[2]; DM,0
same,Serious adverse event: Urinary tract infection (frequency),[2]; DM,0
same,Serious adverse events: No. of events,[2]; DM,4 (4)
same,Serious adverse events: no. of patients,[2]; DM,4 (4)
same,"Depression: Deterioration, % of patients",[3],(34%)
same,"Depression: Deterioration, number of patients",[3],42
same,"Depression: Improvement, % of patients",[3],(29%)
same,"Depression: Improvement, number of patients",[3],36
same,"Depression: Same, % of patients",[3],(38%)
same,"Depression: Same, number of patients",[3],47
same,"Energy: Deterioration, % of patients",[3],(28%)
same,"Energy: Deterioration, number of patients",[3],49
same,"Energy: Improvement, % of patients",[3],(35%)
same,"Energy: Improvement, number of patients",[3],61
same,"Energy: Same, % of patients",[3],(36%)
same,"Energy: Same, number of patients",[3],63
same,"Irritability: Deterioration, % of patients",[3],(29%)
same,"Irritability: Deterioration, number of patients",[3],32
same,"Irritability: Improvement, % of patients",[3],(33%)
same,"Irritability: Improvement, number of patients",[3],37
same,"Irritability: Same, % of patients",[3],(38%)
same,"Irritability: Same, number of patients",[3],42
same,"Pain: Deterioration, % of patients",[3],(17%)
same,"Pain: Deterioration, number of patients",[3],22
same,"Pain: Improvement, % of patients",[3],(50%)
same,"Pain: Improvement, number of patients",[3],64
same,"Pain: Same, % of patients",[3],(33%)
same,"Pain: Same, number of patients",[3],43
same,"Shake/tremor: Deterioration, % of patients",[3],(25%)
same,"Shake/tremor: Deterioration, number of patients",[3],32
same,"Shake/tremor: Improvement, % of patients",[3],(41%)
same,"Shake/tremor: Improvement, number of patients",[3],52
same,"Shake/tremor: Same, % of patients",[3],(34%)
same,"Shake/tremor: Same, number of patients",[3],44
same,"Sleep: Deterioration, % of patients",[3],(16%)
same,"Sleep: Deterioration, number of patients",[3],24
same,"Sleep: Improvement, % of patients",[3],(47%)
same,"Sleep: Improvement, number of patients",[3],71
same,"Sleep: Same, % of patients",[3],(38%)
same,"Sleep: Same, number of patients",[3],57
same,"Spasms: Deterioration, % of patients",[3],(22%)
same,"Spasms: Deterioration, number of patients",[3],27
same,"Spasms: Improvement, % of patients",[3],(49%)
same,"Spasms: Improvement, number of patients",[3],81
same,"Spasms: Same, % of patients",[3],(29%)
same,"Spasms: Same, number of patients",[3],49
same,"Spasticity: Deterioration, % of patients",[3],(27%)
same,"Spasticity: Deterioration, number of patients",[3],47
same,"Spasticity: Improvement, % of patients",[3],(51%)
same,"Spasticity: Improvement, number of patients",[3],89
same,"Spasticity: Same, % of patients",[3],(23%)
same,"Spasticity: Same, number of patients",[3],40
same,"Tiredness: Deterioration, % of patients",[3],(48%)
same,"Tiredness: Deterioration, number of patients",[3],76
same,"Tiredness: Improvement, % of patients",[3],(22%)
same,"Tiredness: Improvement, number of patients",[3],35
same,"Tiredness: Same, % of patients",[3],(29%)
same,"Tiredness: Same, number of patients",[3],46
same,Adverse event: Blocked/insertion of suprapubic catheter (number),[4],0
same,Adverse event: Constipation (number),[4],0
same,Adverse event: Grand mal seizure (number),[4],0
same,Adverse event: MS relapse or possible relapse (number),[4],1
same,Adverse event: Other (number),[4],11
same,Adverse event: Pneumonia (number),[4],2
same,Adverse event: Urinary tract infection (number),[4],3
same,slowing of progression of MS,[5],did not yield results indicating that cannabinoids including dronabinol slowed progression of MS
same,"Bladder symptom improvement: No, % of patients",[6],59%
same,"Bladder symptom improvement: No, number of patients",[6],97
same,"Bladder symptom improvement: Yes, % of patients",[6],40%
same,"Bladder symptom improvement: Yes, number of patients",[6],67
same,"Pain improvement: No, % of patients",[6],50%
same,"Pain improvement: No, number of patients",[6],64
same,"Pain improvement: Yes, % of patients",[6],50%
same,"Pain improvement: Yes, number of patients",[6],64
same,"Spasticity improvement: No, % of patients",[6],40%
same,"Spasticity improvement: No, number of patients",[6],73
same,"Spasticity improvement: Yes, % of patients",[6],60%
same,"Spasticity improvement: Yes, number of patients",[6],108
same,"Tremor improvement: No, % of patients",[6],60%
same,"Tremor improvement: No, number of patients",[6],67
same,"Tremor improvement: Yes, % of patients",[6],40%
same,"Tremor improvement: Yes, number of patients",[6],44
